Data set [1] can be described thus: Precipitation of sample in SPR binding buffer (4% DMF/PBST). The class given is physicochemical. Conditions: at 125 μM. Here is the method:
After the prioritization step, compounds 5, 6 and 7 were resynthesized, purified and subjected to KD determination. Samples were injected over a range of concentrations (e.g. 0.1-125 μM). The compound was prepared as a 10 mM stock solution in DMF. Serial dilutions of this stock were made and then added to the heated PBST (˜70° C., 1 min). In this analysis, a 200 μL final volume was prepared by addition of 8 μL of small molecule DMF solution into 192 μL of a heated PBST. The final concentration ranged between 0.015 μM and 125 μM. 5 and 6 precipitated at 125 μM in 4% DMF/PBST. Samples were injected in the alternation with blanks. “Flow cell 2 with 1 as a reference” was selected and each sample was analyzed in triplicate. For each experiment, a calibration for bulk differences between flow cells due to the high refractive index of DMF was performed by injecting blank samples containing a range of DMF concentrations (1, 2, 3, 3.5, 4, 4.5, 5%) in PBST under conditions otherwise identical to those used for samples of compounds 5, 6 and 7.

The next data set concerns the target calmodulin (Homo sapiens, UniProt P0DP23). As to the kind of experiment: Surface plasmon resonance (BIAcore) binding to immobilized calmodulin. Conditions: SPR, steady state affinity analysis; resynthesized, purified compound; PBST containing 4% DMF. Here is the method: Cy5 detection was chosen to avoid conflict with compound autofluorescence in the Cy3 channel. Positive hits from the microarray were retested for their ability to bind to the immobilized protein using surface plasmon resonance (SPR) spectroscopy (BIAcore). This process enables a rapid initial prioritization of positives prior to resynthesis, The initial secondary SPR screening was performed using compound (2 μL of a 1 mM DMF stock) directly from the original stock solutions used for microarray production. […] For this set, compound 5, 6, and 7 were resynthesized, purified, and their KDs with calmodulin determined by SPR using steady state affinity analysis.
Tetracycle 7: ^1H NMR (500 MHz, CDCl3) δ 6.95 (d, J=8.5 Hz, 2H), 6.87 (m, 4H), 6.71 (d, J=8.0 Hz, 2H), 6.55 (q, J=1.5 Hz, 1H), 6.04 (m, 1H), 4.93 (s, 1H), 4.68 (s, 1H), 3.84 (t, J=5.0 Hz, 4H), 3.34 (dd, J=17.0, 2.5 Hz, 1H), 3.28 (m, 2H), 3.16 (t, J=5.0 Hz, 4H), 3.02 (m, 1H), 2.94 (dd, J=15.0, 7.0 Hz, 1H), 2.54 (dd, J=17.5, 8.5 Hz, 1H), 2.36 (ddd J=15.5, 6.5, 3.5 Hz, 1H), 2.05 (d, J=1.5 Hz, 3H); ^13C NMR (125 MHz, CDCl3) δ 186.4, 186.1, 178.8, 177.1, 154.4, 151.2, 146.0, 143.4, 140.8, 139.5, 132.6, 132.5, 128.2, 127.1, 123.1, 122.7, 115.6, 115.5, 66.7, 48.7, 43.9, 42.6, 39.1, 32.4, 24.5, 24.1, 16.1; FT-IR (thin film) 3411, 2961, 2907, 2852, 1699, 1690, 1649, 1611, 1513, 1441, 1381, 1261, 1234, 1173, 1113, 922, 818, 730 cm^−1; HRMS (TOF ES) calcd for C33H31N2O6, 551.2182 m/z (M+H)^+; observed 551.2186 (0.8 ppm error). BIAcore Experiments Immobilization. In all experiments, calmodulin (CaM) was immobilized on a carboxymethylated dextran-coated sensor chip (CM5, Biacore AB, Uppsala, Sweden) at 25° C. For protein immobilization, ‘specific flow rate’ was selected and the protein of interest was immobilized in flow cells 2 and 4. On Biacore 3000, the sensor chip was activated (7 min in flow cells 2 and 4) by addition of 0.2 M N-ethyl-N'-(3-dimethylaminopropyl) carbodiimide hydrochloride (EDC) and 0.05 M N-hydroxysuccinimide (NHS) at 20 μL/min. […]

The structures appear in SMILES notation.

Turning to `Cc1c(-c2cc(N3C(=O)[C@@H]4C[C@@H]5C(=CC[C@@H]6C(=O)N(c7ccc(/N=N/c8ccc(N(C)C)cc8)cc7)C(=O)[C@@H]65)[C@H](c5cc(Cl)ccc5O)[C@]4(C)C3=O)n(C)n2)sc2ccc(Cl)cc12` [Compound 6], the “precipitation in 4% DMF/PBST” value in data set [1] is recorded as “precipitated”. Moreover, the equilibrium dissociation constant (Kd) on calmodulin was found to be 1.06 ± 0.09 µM.

At calmodulin, `CC1=CC(=O)C2=C(C[C@@H]3C(=CC[C@@H]4C(=O)N(c5ccc(N6CCOCC6)cc5)C(=O)[C@@H]43)[C@@H]2c2ccc(O)cc2)C1=O` [Compound 7] came in with a Kd of 20.7 ± 1 µM.

As to `CN(C)c1ccc(/N=N/c2ccc(N3C(=O)[C@H]4[C@H](CC=C5[C@H]4C[C@H]4C(=O)N(c6ccc(F)c(Cl)c6)C(=O)[C@@]4(C)[C@H]5c4cc(Cl)ccc4O)C3=O)cc2)cc1` [Compound 5], the “precipitation in 4% DMF/PBST” value in data set [1] was “precipitated”. At calmodulin, this compound gave a Kd of 0.121 ± 0.03 µM.

For the origin of these results see US7932213B2, “Small molecule printing” (President and Fellows of Harvard College, priority 1999, dated 2011).
